Laboratory results reported in PMC5334642, “A Peptide Amphiphile Organogelator of Polar Organic Solvents” (Scientific Reports, 2017).

Experiments:
[1] = hydrogel of similar PA; cited from earlier work
Description: This is consistent with previous findings that increasing the proportion of valines in the β-sheet forming region of a PA results in an increase in gel stiffness. With PAs such as […]16, the β-sheet signal in the CD spectrum is red-shifted by a magnitude that inversely correlates with gel stiffness, and this has been attributed to the extent of twisting of the sheets, i.e., stiffer gels involve stronger peptide interactions with the least t ...

[2] = Gelation by inversion test; details: for minimum gel concentration (MGC): inversion test
[3] = Solubility in water and organic solvents
[4] = Rheology of the gels (strain sweep, frequency sweep, thixotropic test); format: physicochemical
Protocol: […]-C8 therefore forms a very stiff but brittle gel.
An aliquot (550 μL) of this solution was then cast onto an Anton Paar MCR 302 rheometer (parallel plate geometry, 25 mm diameter, 1 mm gap) and left to gel over the course of 4 h. A solvent trap and Peltier hood was used to prevent any evaporation during gelation. Frequency sweeps were performed from 0.1–10 Hz, at a constant strain of 0.2% and three repeats performed on separate samples. Strain sweeps were performed from 0.1–100% at a constant frequency of 1 Hz.

## EEEAAAVVV-C16 [previously reported hydrogel-forming peptide amphiphile studied by the Stupp and Nguyen groups]
[1]
  gel stiffness: < 10^4 Pa

## N- Val3-His-Gly-Val3
[2]; acetonitrile/water mixtures
  gelation of acetonitrile/water solutions: did not gelate
[3]; mixtures of acetonitrile and water, VVVGHVVV-C8 with sonication
  solubility in acetonitrile/water mixtures: soluble
[3]; water, regardless of pH, temperature and sonication
  solubility in water: peculiarly soluble in water

## N-Octanoic acid-Val3-His-Gly-Val3
[4]; 0.20 wt.% gel in 50% acetonitrile/water, frequency sweep 0.1-10 Hz at constant 0.2% strain, three repeats on separate samples
  gel stiffness (approximated by G'): 1.5 × 10^5 Pa
[4]; DMF organogel
  cross-over point under oscillatory strain: no cross-over point observed
[4]; gel from 0.20 wt.% solution in 50% acetonitrile/water, strain sweep 0.1-100% at constant frequency of 1 Hz
  strain at which mechanical properties deviate from the linear viscoelastic region: less than 1 % strain
[4]; gel from 0.20 wt.% solution in 50% acetonitrile/water, strain sweep at constant frequency of 1 Hz
  cross-over point from gel to liquid (G' = G''): 3 % strain
[2]; DMF
  minimum gel concentration (MGC): 0.06 wt.%
[2]; acetone
  minimum gel concentration (MGC): 0.06 wt.%
[2]; chloroform solution
  gel formation in chloroform: did not form gels
[2]; dichloromethane solution
  gel formation in dichloromethane: did not form gels
[2]; dimethyl sulfoxide solution
  gel formation in dimethyl sulfoxide: did not form gels
[2]; ethanol solution
  gel formation in ethanol: did not form gels
[2]; isopropanol solution
  gel formation in isopropanol: did not form gels
[2]; methanol solution
  gel formation in methanol: did not form gels
[2]; toluene solution
  gel formation in toluene: did not form gels
[3]; DMF
  solubility in DMF: dissolved
[3]; acetonitrile
  solubility in acetonitrile: insoluble
[3]; dichloromethane
  solubility in dichloromethane: dissolved
[3]; dimethyl sulfoxide
  solubility in dimethyl sulfoxide: dissolved
[3]; ethyl acetate, heating to reflux temperatures and sonicating for up to one hour
  solubility in ethyl acetate: did not dissolve
